Tested on: Lung cancer cell line NCI-H358 containing KRas G12C mutation
Test: Assay for cell proliferation (Cell-titer Glo, 5 days)
Format: cell-based, human
Conditions: Homo sapiens, NCI-H358, 120 h, NCI-H358, 5 days, Cell-titer Glo; read-out: IC50 (nM), Inhibition of NCI-H358 Cell Proliferation
Description: One hundred fifty microliter (150 μL) of media containing 2000 cells per well were seeded into each well of a 96-well culture plate and left to attach overnight in a 37° C. incubator with 5% CO2. Diluted compounds of 0.75 μL for each well were added by liquid handler at a final concentration of 0.5% DMSO. Cells were treated for 5 days in the incubator. Cell-titer Glo (CTG) kit (Promega) was used to assess cell proliferation. Of note, 120 μL of CTG reagent was added to each well and incubated at RT for 10 minutes.

In order of falling IC50:
1. C=CC(=O)N1C[C@H](C)N(c2nc(=O)n(-c3c(F)cc4c(ncn4C)c3C3CC3)c3nc(-c4c(N)cccc4F)c(F)cc23)C[C@H]1C (atropisomer, axis not shown) [Compound 179]  386 nM
2. C=CC(=O)N1CCN(c2nc(=O)n(-c3c(C)nc4c(ncn4C)c3C(C)C)c3nc(-c4c(O)cccc4F)c(F)cc23)[C@@H](C)C1 (single isomer, unassigned) [Compound 163]  44.2 nM

Same assay, conditions: NCI-H358, 5 days, Cell-titer Glo; read-out: IC50 (nM), Inhibition of NCI-H358 Cell Proliferation

First: C=CC(=O)N1CCN(c2nc(=O)n(-c3c(C)cc4c(ncn4C)c3C(C)C)c3nc(-c4c(N)cccc4F)c(Cl)cc23)[C@@H](C)C1 (atropisomer, axis not shown) [Compound 151]
Second: C=CC(=O)N1CCN(c2nc(=O)n(-c3c(C)cc4c(ncn4C)c3C(C)C)c3nc(-c4c(N)cccc4F)c(F)cc23)[C@@H](C)C1 (single isomer, unassigned) [Compound 147]
The IC50 of the first is 6-fold higher: 16.2 nM for the first, 2.7 nM for the second.

Compared with C=CC(=O)N1CCN(c2nc(=O)n(-c3c(C)cc4c(ncn4C)c3C(C)C)c3nc(-c4ccccc4F)c(Cl)cc23)[C@@H](C)C1 (single isomer, unassigned) [Compound 141], C=CC(=O)N1C[C@H](C)N(c2nc(=O)n(-c3c(C)cc4c(ncn4C)c3C(C)C)c3nc(-c4ccccc4F)c(Cl)cc23)C[C@H]1C (single isomer, unassigned) [Compound 159] is 1.7-fold higher in IC50: 38 nM for the first, 64.2 nM for the second.

First: C=CC(=O)N1CCN(c2nc(=O)n(-c3c(C)cc4c(ncn4C)c3C(C)C)c3nc(-c4ccccc4F)c(Cl)cc23)[C@@H](C)C1 (single isomer, unassigned) [Compound 142]
Second: C=CC(=O)N1C[C@H](C)N(c2nc(=O)n(-c3c(C)cc4c(ncn4C)c3C(C)C)c3nc(-c4ccccc4F)c(Cl)cc23)C[C@H]1C (single isomer, unassigned) [Compound 160]
The IC50 of the first is 1.7-fold higher: 2.2 nM for the first, 1.3 nM for the second. The second is the more potent here.

Compared with C=CC(=O)N1CCN(c2nc(=O)n(-c3c(F)cc4c(ncn4C)c3C(C)C)c3nc(-c4c(N)cccc4F)c(F)cc23)[C@@H](C)C1 (single isomer, unassigned) [Compound 143], C=CC(=O)N1CCN(c2nc(=O)n(-c3c(C)cc4c(ncn4C)c3C(C)C)c3nc(-c4c(N)cccc4F)c(F)cc23)[C@@H](C)C1 (single isomer, unassigned) [Compound 148] is 17-fold lower in IC50: 1300 nM for the first, 78.6 nM for the second. The second is the more potent here.

Compared with C=CC(=O)N1CCN(c2nc(=O)n(-c3c(F)cc4c(ncn4C)c3C(C)C)c3nc(-c4c(N)cccc4F)c(F)cc23)[C@@H](C)C1 (single isomer, unassigned) [Compound 144], C=CC(=O)N1CCN(c2nc(=O)n(-c3c(C)cc4c(ncn4C)c3C(C)C)c3nc(-c4c(O)cccc4F)c(F)cc23)[C@@H](C)C1 (single isomer, unassigned) [Compound 155] is 24-fold higher in IC50: 2.5 nM for the first, 60 nM for the second.

Going from C=CC(=O)N1C[C@H](C)N(c2nc(=O)n(-c3c(C)cc4c(ncn4C)c3C(C)C)c3nc(-c4c(O)cccc4F)c(Cl)cc23)C[C@H]1C (single isomer, unassigned) [Compound 149] to C=CC(=O)N1C[C@H](C)N(c2nc(=O)n(-c3c(C)cc4c(ncn4C)c3C(C)C)c3nc(-c4c(N)cccc4F)c(Cl)cc23)C[C@H]1C (single isomer, unassigned) [Compound 161], the IC50 rises from 12.8 nM to 32.4 nM (2.5-fold). The first is the more potent here.

Compared with C=CC(=O)N1C[C@H](C)N(c2nc(=O)n(-c3c(C)cc4c(ncn4C)c3C(C)C)c3nc(-c4c(O)cccc4F)c(Cl)cc23)C[C@H]1C (single isomer, unassigned) [Compound 150], C=CC(=O)N1C[C@H](C)N(c2nc(=O)n(-c3c(C)cc4c(ncn4C)c3C(C)C)c3nc(-c4c(N)cccc4F)c(Cl)cc23)C[C@H]1C (single isomer, unassigned) [Compound 162] is 2.2-fold lower in IC50: 1.1 nM for the first, 0.5 nM for the second.

First: C=CC(=O)N1C[C@H](C)N(c2nc(=O)n(-c3c(C)cc4c(ncn4C)c3C(C)C)c3nc(-c4c(N)cccc4F)c(F)cc23)C[C@H]1C (single isomer, unassigned) [Compound 153]
Second: C=CC(=O)N1C[C@H](C)N(c2nc(=O)n(-c3c(F)cc4c(ncn4C)c3C(C)C)c3nc(-c4c(N)cccc4F)c(Cl)cc23)C[C@H]1C (single isomer, unassigned) [Compound 173]
The IC50 of the first is 7.3-fold higher: 172 nM for the first, 23.5 nM for the second. The second is the more potent here.

Going from C=CC(=O)N1C[C@H](C)N(c2nc(=O)n(-c3c(C)cc4c(ncn4C)c3C(C)C)c3nc(-c4c(N)cccc4F)c(F)cc23)C[C@H]1C (single isomer, unassigned) [Compound 154] to C=CC(=O)N1C[C@H](C)N(c2nc(=O)n(-c3c(F)cc4c(ncn4C)c3C(C)C)c3nc(-c4c(N)cccc4F)c(Cl)cc23)C[C@H]1C (single isomer, unassigned) [Compound 174], the IC50 falls from 1.4 nM to 0.2 nM (7-fold). The second is the more potent here.

First: C=CC(=O)N1CCN(c2nc(=O)n(-c3c(C)cc4c(ncn4C)c3C(C)C)c3nc(-c4c(O)cccc4F)c(F)cc23)[C@@H](C)C1 (single isomer, unassigned) [Compound 156]
Second: C=CC(=O)N1C[C@H](C)N(c2nc(=O)n(-c3c(C)nc4c(ncn4C)c3C(C)C)c3nc(-c4c(N)cccc4F)c(F)cc23)C[C@H]1C (single isomer, unassigned) [Compound 164]
The IC50 of the first is lower: 6.9 nM for the first, over 1000 nM for the second.

Compared with C=CC(=O)N1C[C@H](C)N(c2nc(=O)n(-c3c(C)nc4c(ncn4C)c3C(C)C)c3nc(-c4c(N)cccc4F)c(F)cc23)C[C@H]1C (single isomer, unassigned) [Compound 165], C=CC(=O)N1C[C@H](C)N(c2nc(=O)n(-c3c(C)nc4c(ncn4C)c3C(C)C)c3nc(-c4c(N)cccc4F)c(Cl)cc23)C[C@H]1C (single isomer, unassigned) [Compound 175] is 9.8-fold lower in IC50: 157 nM for the first, 16.1 nM for the second. The second is the more potent here.

First: C=CC(=O)N1C[C@H](C)N(c2nc(=O)n(-c3c(C)nc4c(ncn4C)c3C(C)C)c3nc(-c4ccccc4F)c(Cl)cc23)C[C@H]1C (single isomer, unassigned) [Compound 167]
Second: C=CC(=O)N1C[C@H](C)N(c2nc(=O)n(-c3c(C)nc4c(ncn4C)c3C(C)C)c3nc(-c4c(O)cccc4F)c(Cl)cc23)C[C@H]1C (single isomer, unassigned) [Compound 171]
The IC50 of the first is 20-fold lower: 0.8 nM for the first, 15.6 nM for the second.

First: C=CC(=O)N1C[C@H](C)N(c2nc(=O)n(-c3c(C)nc4c(ncn4C)c3C(C)C)c3nc(-c4ccccc4F)c(Cl)cc23)C[C@H]1C (single isomer, unassigned) [Compound 168]
Second: C=CC(=O)N1C[C@H](C)N(c2nc(=O)n(-c3c(C)nc4c(ncn4C)c3C(C)C)c3nc(-c4c(O)cccc4F)c(Cl)cc23)C[C@H]1C (single isomer, unassigned) [Compound 172]
The IC50 of the first is 17-fold higher: 20.3 nM for the first, 1.2 nM for the second.

Going from C=CC(=O)N1C[C@H](C)N(c2nc(=O)n(-c3c(F)cc4c(ncn4C)c3C(C)C)c3nc(-c4ccccc4F)c(Cl)cc23)C[C@H]1C (single isomer, unassigned) [Compound 169] to C=CC(=O)N1C[C@H](C)N(c2nc(=O)n(-c3c(F)cc4c(ncn4C)c3C3CC3)c3nc(-c4c(N)cccc4F)c(Cl)cc23)C[C@H]1C (single isomer, unassigned) [Compound 177], the IC50 falls from 119 nM to 73.7 nM (1.6-fold). The second is the more potent here.

Compared with C=CC(=O)N1C[C@H](C)N(c2nc(=O)n(-c3c(F)cc4c(ncn4C)c3C(C)C)c3nc(-c4ccccc4F)c(Cl)cc23)C[C@H]1C (single isomer, unassigned) [Compound 170], C=CC(=O)N1C[C@H](C)N(c2nc(=O)n(-c3c(C)nc4c(ncn4C)c3C(C)C)c3nc(-c4c(N)cccc4F)c(Cl)cc23)C[C@H]1C (single isomer, unassigned) [Compound 176] is 2-fold lower in IC50: 1 nM for the first, 0.5 nM for the second.

Source: patent publication US12110289B2, “Heterocyclic compounds, preparation methods and uses thereof” (InventisBio Co., Ltd., priority 2020, dated 2024)
